# In the supplement of paper PMC10307832:
# Compound: CN(C)C(=N)NC(=N)N [Metformin] + CC1(C)CCC(c2ccc(Cl)cc2)=C(CN2CCN(c3ccc(C(=O)NS(=O)(=O)c4ccc(N[C@H](CCN5CCOCC5)CSc5ccccc5)c(S(=O)(=O)C(F)(F)F)c4)cc3)CC2)C1 [Navitoclax] (partner 0.5 µM)
# Test: relative viability (nuclei count vs DMSO), 5 days (fraction); higher = more cells survive
# Settings: first compound 10 µM
# Outline: (§1)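 For relative viability, nuclei counts in treated wells were divided by those in vehicle wells. Lung cancer cell lines had been pin-tool dosed in 1536-well plates the day after seeding and cultured for 5 days, then fixed and stained in one step (final 0.05% Triton X-100, 1% formaldehyde, 1 ug/ml Hoechst) and imaged at 4×. Doses were one drug alone or a fixed anchor-drug dose plus five library-drug doses (not always all listed) in √10 steps, and values are duplicate-plate medians.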
row,Cell Line,relative viability
1,LOU-NH91,0.867
2,LU99A,0.693
3,LXF-289,0.912
4,NCI-H23,0.82
5,NCI-H322M,1.19
6,NCI-H441,0.408
7,NCI-H520,1.1
8,NCI-H596,0.985
9,NCI-H647,0.869
10,NCI-H838,1.19
11,NCI-H1355,0.936
12,NCI-H1395,1.11
13,NCI-H1437,1.08
14,NCI-H1650,1.16
15,NCI-H1651,1.14

# Same assay, conditions: first compound 31.62 µM
row,Cell Line,relative viability
1,LOU-NH91,0.717
2,LU99A,0.743
3,LXF-289,0.918
4,NCI-H23,0.902
5,NCI-H322M,1.28
6,NCI-H520,1.08
7,NCI-H596,1.15
8,NCI-H647,1.13
9,NCI-H838,1.23
10,NCI-H1355,1.02
11,NCI-H1395,1.32
12,NCI-H1437,1.08
13,NCI-H1650,1.34
14,NCI-H1651,1.38

# Same assay, conditions: first compound 100 µM
row,Cell Line,relative viability
1,LOU-NH91,0.751
2,LU99A,0.677
3,LXF-289,0.939
4,NCI-H23,0.805
5,NCI-H322M,1.02
6,NCI-H441,0.55
7,NCI-H520,1.13
8,NCI-H596,1.1
9,NCI-H647,1.44
10,NCI-H838,1.21
11,NCI-H1355,0.955
12,NCI-H1395,1.06
13,NCI-H1437,1.12
14,NCI-H1650,1.46
15,NCI-H1651,1.27

# Same assay, conditions: first compound 316.23 µM
row,Cell Line,relative viability
1,LOU-NH91,0.766
2,LU99A,0.814
3,LXF-289,0.914
4,NCI-H23,0.839
5,NCI-H322M,1.14
6,NCI-H520,0.979
7,NCI-H596,0.908
8,NCI-H647,1.12
9,NCI-H838,1.15
10,NCI-H1355,0.719
11,NCI-H1395,0.958
12,NCI-H1437,0.979
13,NCI-H1650,1.37
14,NCI-H1651,1.21

# Same assay, conditions: first compound 1000 µM
row,Cell Line,relative viability
1,LOU-NH91,0.767
2,LU99A,0.749
3,LXF-289,0.901
4,NCI-H23,0.993
5,NCI-H322M,1.19
6,NCI-H441,0.486
7,NCI-H520,1.19
8,NCI-H596,1
9,NCI-H647,0.763
10,NCI-H838,1.22
11,NCI-H1355,0.903
12,NCI-H1395,1.1
13,NCI-H1437,1.08
14,NCI-H1650,1.1
15,NCI-H1651,1.46

# Compound: N#CC1(c2ccc(NC(=O)c3cccnc3NCc3ccncc3)cc2)CCCC1 [Apatinib] + CC1(C)CCC(c2ccc(Cl)cc2)=C(CN2CCN(c3ccc(C(=O)NS(=O)(=O)c4ccc(N[C@H](CCN5CCOCC5)CSc5ccccc5)c(S(=O)(=O)C(F)(F)F)c4)cc3)CC2)C1 [Navitoclax] (partner 0.5 µM)
# Test: as above
# Settings: first compound 0.08 µM
# Outline: as §1
row,Cell Line,relative viability
1,LOU-NH91,0.692
2,LU99A,0.876
3,LXF-289,0.948
4,NCI-H23,1.01
5,NCI-H322M,1.28
6,NCI-H441,1.07
7,NCI-H520,1.21
8,NCI-H596,1.03
9,NCI-H647,1.3
10,NCI-H838,1.25
11,NCI-H1355,0.944
12,NCI-H1395,1.1
13,NCI-H1437,1.12
14,NCI-H1650,1.39
15,NCI-H1651,1.02

# Same assay, conditions: first compound 0.253 µM
row,Cell Line,relative viability
1,LOU-NH91,0.744
2,LU99A,0.851
3,LXF-289,0.925
4,NCI-H23,0.931
5,NCI-H322M,1.11
6,NCI-H441,0.5
7,NCI-H520,1.14
8,NCI-H596,1.11
9,NCI-H647,1.29
10,NCI-H838,1.27
11,NCI-H1355,0.929
12,NCI-H1395,1.13
13,NCI-H1437,1.14
14,NCI-H1650,1.41
15,NCI-H1651,1.22

# Same assay, conditions: first compound 0.8 µM
row,Cell Line,relative viability
1,LOU-NH91,0.517
2,LU99A,0.745
3,LXF-289,0.95
4,NCI-H23,0.742
5,NCI-H322M,1.25
6,NCI-H441,0.728
7,NCI-H520,0.982
8,NCI-H596,0.927
9,NCI-H647,1.04
10,NCI-H838,1.09
11,NCI-H1355,0.848
12,NCI-H1395,1.09
13,NCI-H1437,0.939
14,NCI-H1650,1.18
15,NCI-H1651,0.97

# Same assay, conditions: first compound 2.53 µM
row,Cell Line,relative viability
1,LOU-NH91,0.565
2,LU99A,0.721
3,LXF-289,0.82
4,NCI-H23,0.725
5,NCI-H322M,1.32
6,NCI-H441,0.519
7,NCI-H520,1.02
8,NCI-H596,0.945
9,NCI-H647,0.975
10,NCI-H838,1.12
11,NCI-H1355,0.815
12,NCI-H1395,1.02
13,NCI-H1437,0.928
14,NCI-H1650,1.1
15,NCI-H1651,0.928

# Same assay, conditions: first compound 8 µM
row,Cell Line,relative viability
1,LOU-NH91,0.58
2,LU99A,0.732
3,LXF-289,0.882
4,NCI-H23,0.794
5,NCI-H322M,1.12
6,NCI-H441,0.31
7,NCI-H520,0.857
8,NCI-H596,0.857
9,NCI-H647,0.779
10,NCI-H838,1.05
11,NCI-H1355,0.65
12,NCI-H1395,0.957
13,NCI-H1437,0.776
14,NCI-H1650,1.06
15,NCI-H1651,0.867
